The test concerns the target T1, RsiG (Streptomyces venezuelae, UniProt F2RFR7).
T1 sequence (F2RFR7 1-199): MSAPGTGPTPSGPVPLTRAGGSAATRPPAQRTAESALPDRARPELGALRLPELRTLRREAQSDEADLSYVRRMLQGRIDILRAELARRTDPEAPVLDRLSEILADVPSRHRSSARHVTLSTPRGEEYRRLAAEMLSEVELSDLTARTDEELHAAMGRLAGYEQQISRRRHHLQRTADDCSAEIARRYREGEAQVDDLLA
Briefly: fluorescence polarization. The format is binding. To be noted: labelled compound; 150 mM NaCl, 25 mM Tris-HCl pH 7.5, 25°C; 1 nM probe. A general note: Polarisation of emitted light reports the rotation of a fluorescent probe.

In general, Kd refers to the free concentration of one partner at which half of the binding sites on the other are occupied at equilibrium, for simple one-to-one binding. A higher Kd goes with a looser complex. As to “2′-O-(6-[Fluoresceinyl]aminohexylcarbamoyl)-cyclic diguanosine monophosphate [2′-Fluo-AHC-c-di-GMP]”, binding was put at a Kd of 6.5 ± 1.5 µM.

Values taken from publication PMC7005675 (Molecular Cell, 2020).
